Assay results from US20140303164A1, “THERAPEUTIC COMPOUNDS” (Gilead Sciences, Inc., priority 2013, published 2014).

Assays:
[1] = system: uninfected MT-4 cells; assay: Test B: Cytotoxicity Assay; type: cell-based; settings: same protocol as Test A, 5 days
Outline: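 Uninfected MT-4 cells (2000 per well) incubated with diluted compound at 37° C. for 5 days, following the antiviral protocol without HIV-IIIb.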

[2] = system: HIV-IIIb; assay: Test A: Antiviral Assay in MT4 Cells; type: cell-based, HIV-1; settings: from dose response curve, MT-4 cells, HIV-IIIb, 5 days, values above 100 normalized to 100; for % inhibition at 0.2 μM: percent inhibition of virus-induced cell killing at 0.2 μM drug concentration; for % inhibition at 2 μM: percent inhibition of virus-induced cell killing at 2 μM drug concentration
Procedure: Test A: Antiviral Assay in MT4 Cells
MT-4 cells were next mixed with HIV-IIIb at an m.o.i of 0.003 for 1 hour, after which time 35 μL of virus/cell mixture (2000 cells) was immediately added to each well containing 40 μL of diluted compound. The plates were then incubated at 37° C. for 5 days. […] Cell lysis was carried out by incubating at room temperature for 10 min and then chemiluminescence was read.

Row | SMILES | CC50 [1] [µM] | % inhibition at 0.2 μM [2] [%] | % inhibition at 2 μM [2] [%]
1 | Cn1cc(-c2ccc(-c3ccc(Cl)c4c(NS(C)(=O)=O)nn(C)c34)c([C@H](Cc3cc(F)cc(F)c3)NC(=O)Cn3nc(C(F)(F)F)c4c3C(F)(F)[C@@H]3C[C@H]43)n2)cn1 [Compound 173, N—((S)-1-(3-(4-chloro-1-methyl-3-(methylsulfonamido)-1H-indazol-7-yl)-6-(1-methyl-1H-pyrazol-4-yl)pyridin-2-yl)-2-(3,5-difluorophenyl)ethyl)-2-((3b-S,4aR)-5,5-difluoro-3-(trifluoromethyl)-3b,4,4a,5-tetrahydro-1H-cyclopropa[3,4]cyclopenta[1,2-c]pyrazol-1-yl)acetamide] | > 43.7 | 92 | 92
2 | COc1cc(-c2ccc(Cl)c3c(NS(C)(=O)=O)nn(C)c23)c([C@H](Cc2cc(F)cc(F)c2)NC(=O)Cn2nc(C(F)(F)F)c3c2C(F)(F)[C@@H]2C[C@H]32)nc1C#CC(C)(C)O [Compound 135B, N—((S)-1-(3-(4-chloro-1-methyl-3-(methylsulfonamido)-1H-indazol-7-yl)-6-(3-hydroxy-3-methylbut-1-yn-1-yl)-5-methoxypyridin-2-yl)-2-(3,5-difluorophenyl)ethyl)-2-((3b-S,4aR)-5,5-difluoro-3-(trifluoromethyl)-3b,4,4a,5-tetrahydro-1H-cyclopropa[3,4]cyclopenta[1,2-c]pyrazol-1-yl)acetamide] | 14.2 | 93 | 93
3 | Cc1ccc(-c2ccc(C#CC(C)(C)O)nc2[C@H](Cc2cc(F)cc(F)c2)NC(=O)Cn2nc(C(F)F)c3c2C(F)(F)[C@@H]2C[C@H]32)c2c1c(NS(N)(=O)=O)nn2C [Compound 71, 2-((3b-S,4aR)-3-(difluoromethyl)-5,5-difluoro-3b,4,4a,5-tetrahydro-1H-cyclopropa[3,4]cyclopenta[1,2-c]pyrazol-1-yl)-N—((S)-2-(3,5-difluorophenyl)-1-(3-(1,4-dimethyl-3-(sulfamoylamino)-1H-indazol-7-yl)-6-(3-hydroxy-3-methylbut-1-yn-1-yl)pyridin-2-yl)ethyl)acetamide] | 9.51 | 87 | 87
4 | Cn1nc(NS(C)(=O)=O)c2cccc(-c3ccc(C#C[C@@H](N)CO)nc3[C@H](Cc3cc(F)cc(F)c3)NC(=O)Cn3nc(C(F)(F)F)c4c3C(F)(F)[C@@H]3C[C@H]43)c21 [Compound 59B, N—((S)-1-(6-((R)-3-amino-4-hydroxybut-1-yn-1-yl)-3-(1-methyl-3-(methylsulfonamido)-1H-indazol-7-yl)pyridin-2-yl)-2-(3,5-difluorophenyl)ethyl)-2-((3b-S,4aR)-5,5-difluoro-3-(trifluoromethyl)-3b,4,4a,5-tetrahydro-1H-cyclopropa[3,4]cyclopenta[1,2-c]pyrazol-1-yl)acetamide] | 22.4 | 94 | 94
5 | CC(C)(O)C#Cc1ccc(-c2cccc3c(N)n[nH]c23)c([C@H](Cc2cc(F)cc(F)c2)NC(=O)Cn2nc(C(F)(F)F)c3c2C(F)(F)[C@@H]2C[C@H]32)n1 [Compound 29B, N—((S)-1-(3-(3-amino-1H-indazol-7-yl)-6-(3-hydroxy-3-methylbut-1-yn-1-yl)pyridin-2-yl)-2-(3,5-difluorophenyl)ethyl)-2-((3b-S,4aR)-5,5-difluoro-3-(trifluoromethyl)-3b,4,4a,5-tetrahydro-1H-cyclopropa[3,4]cyclopenta[1,2-c]pyrazol-1-yl)acetamide] | 15.3 | 80 | 81
6 | CC(C)(C)C#Cc1ccc(-c2cccn3c(NS(C)(=O)=O)nnc23)c([C@H](Cc2cc(F)cc(F)c2)NC(=O)Cn2nc(C(F)F)c3c2C(F)(F)[C@@H]2C[C@H]32)n1 [Compound 134, 2-((3bS,4aR)-3-(difluoromethyl)-5,5-difluoro-3b,4,4a,5-tetrahydro-1H-cyclopropa[3,4]cyclopenta[1,2-c]pyrazol-1-yl)-N—((S)-2-(3,5-difluorophenyl)-1-(6-(3,3-dimethylbut-1-yn-1-yl)-3-(3-(methylsulfonamido)-[1,2,4]triazolo[4,3-a]pyridin-8-yl)pyridin-2-yl)ethyl)acetamide] | 28 | 82 | 83
